Laboratory results taken from US20250214969A1, “PROTEIN DEGRADERS AND USES THEREOF” (Kymera Therapeutics, Inc., priority 2022, published 2025).

Tests used:
[1] = biological target: T1, truncated His-MBP-Tev-KLHDC2 (residues 1-363) (Homo sapiens, UniProt Q9Y2U9); assay: KLHDC2 FP competition binding assay; details: 15 nM KLHDC2 (residues 1-363), 10 nM fluorescein-labeled diglycine peptide probe, read-out: KLHDC2 binding Human FP: average external IC50
T1 construct: truncated His -MBP-Tev-KLHDC2 (residues 1-363) purified from E. coli; made in house; host or cells: E. coli
T1 sequence (Q9Y2U9 1-363): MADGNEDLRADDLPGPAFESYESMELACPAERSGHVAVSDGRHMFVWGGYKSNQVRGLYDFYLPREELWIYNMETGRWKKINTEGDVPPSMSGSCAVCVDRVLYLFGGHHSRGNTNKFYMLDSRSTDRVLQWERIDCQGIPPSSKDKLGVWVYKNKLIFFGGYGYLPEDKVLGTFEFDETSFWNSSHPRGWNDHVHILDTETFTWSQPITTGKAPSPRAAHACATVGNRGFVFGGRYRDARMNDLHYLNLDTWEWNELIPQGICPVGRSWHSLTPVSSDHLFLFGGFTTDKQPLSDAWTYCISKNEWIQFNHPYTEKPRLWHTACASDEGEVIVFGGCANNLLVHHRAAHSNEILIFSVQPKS

[2] = biological target: T1, truncated His-MBP-Tev-KLHDC2 (residues 1-363); assay: KLHDC2 HTRF binding assay; details: 1 nM KLHDC2 (residues 1-363), fluorescein-labeled diglycine peptide probe

IC50 [1] [µM] | IC50 [2] [µM] | Compound
0.5 to 5 | < 0.05 | O=C(O)Cn1cc(NC(=O)c2cccc(-c3cncc4ccccc34)c2)ccc1=O [I-131]
> 5 | 0.5 to 5 | CC(C)Cn1ccc2c(C(=O)Nc3ccc(=O)n(CC(=O)O)c3)ccnc21 [I-132]
> 5 | 0.5 to 5 | CC(C)Cn1cnc2c(C(=O)Nc3ccc(=O)n(CC(=O)O)c3)cccc21 [I-133]
0.5 to 5 | 0.05 to 0.5 | COc1cc(-c2ccc(Cl)cc2)ccc1C(=O)Nc1ccc(=O)n(CC(=O)O)c1 [I-134]
> 5 | 0.5 to 5 | COc1cc(-c2ccc(C)cc2)ccc1C(=O)Nc1ccc(=O)n(CC(=O)O)c1 [I-135]
> 5 | 0.5 to 5 | CC(C)Cn1ncc2c(C(=O)Nc3ccc(=O)n(CC(=O)O)c3)cccc21 [I-136]
> 5 | > 5 | NCCCCCCn1ccc2c(C(=O)Nc3ccc(=O)n(CC(=O)O)c3)cccc21 [I-137]
0.5 to 5 | 0.05 to 0.5 | O=C(O)Cn1cc(NC(=O)c2cccc(-c3nc4ccccc4s3)c2)ccc1=O [I-138]
> 5 | 0.5 to 5 | O=C(O)Cn1cc(NC(=O)c2cccc3[nH]ccc23)ccc1=O [I-139]
> 5 | > 5 | O=C(O)Cn1cc(NC(=O)N2CCC(c3ccccc3)CC2)ccc1=O [I-140]
> 5 | 0.5 to 5 | O=C(O)Cn1cc(NC(=O)c2cccc(-c3cccnc3)n2)ccc1=O [I-141]
0.5 to 5 | 0.05 to 0.5 | O=C(O)Cn1cc(NC(=O)c2cc(-c3cccnc3)ccn2)ccc1=O [I-142]
0.5 to 5 | 0.5 to 5 | COc1cc(-c2ccsc2)ccc1C(=O)Nc1ccc(=O)n(CC(=O)O)c1 [I-143]
0.5 to 5 | 0.5 to 5 | NCCCCCCc1ccc(C(=O)Nc2ccc(=O)n(CC(=O)O)c2)cc1-c1cccnc1 [I-144]
> 5 | 0.5 to 5 | Cn1ccc2c(C(=O)Nc3ccc(=O)n(CC(=O)O)c3)cccc21 [I-145]
0.05 to 0.5 | 0.05 to 0.5 | CC(C)(C)OC(=O)NCCCCCCc1ccc(C(=O)Nc2ccc(=O)n(CC(=O)O)c2)cc1-c1cccnc1 [I-146]
> 5 | > 5 | CCOC(=O)Cn1cc(NC(=O)c2ccc(CCCCCCN)c(-c3cccnc3)c2)ccc1=O [I-147]
0.5 to 5 | 0.5 to 5 | COc1cc(-c2nccs2)ccc1C(=O)Nc1ccc(=O)n(CC(=O)O)c1 [I-148]
0.5 to 5 | 0.5 to 5 | COc1cc(-c2ccccn2)ccc1C(=O)Nc1ccc(=O)n(CC(=O)O)c1 [I-149]
> 5 | > 5 | CCOC(=O)Cn1cc(NC(=O)c2ccc(CCCCCCNC(=O)OC(C)(C)C)c(-c3cccnc3)c2)ccc1=O [I-150]
> 5 | 0.5 to 5 | Nc1ccc2cc(C(=O)Nc3ccc(=O)n(CC(=O)O)c3)ccc2c1 [I-151]
> 5 | > 5 | CCOC(=O)Cn1cc(NC(=O)c2cccc(-c3cnccc3CCCCCCN)c2)ccc1=O [I-152]

IC50 [1] [µM] | IC50 [2] [µM] | Compound
0.5 to 5 | 0.5 to 5 | COc1cc(-c2cccs2)ccc1C(=O)Nc1ccc(=O)n(CC(=O)O)c1 [I-153]
> 5 | 0.5 to 5 | COc1cc(-c2cncs2)ccc1C(=O)Nc1ccc(=O)n(CC(=O)O)c1 [I-154]
0.5 to 5 | 0.05 to 0.5 | COc1cc(-c2ccc(F)cc2)ccc1C(=O)Nc1ccc(=O)n(CC(=O)O)c1 [I-155]
> 5 | > 5 | CCOC(=O)Cn1cc(NC(=O)c2cccc(-c3cnccc3CCCCCCNC(=O)OC(C)(C)C)c2)ccc1=O [I-156]
> 5 | > 5 | CCOC(=O)Cn1cc(NC(=O)c2cc(CCCCCCN)cc(-c3cccnc3)c2)ccc1=O [I-157]
> 5 | > 5 | CCOC(=O)Cn1cc(NC(=O)c2cccc(-c3cncc(CCCCCCNC(=O)OC(C)(C)C)c3)c2)ccc1=O [I-158]
> 5 | > 5 | CCOC(=O)Cn1cc(NC(=O)c2cccc(-c3cncc(CCCCCCN)c3)c2)ccc1=O [I-159]
0.5 to 5 | 0.05 to 0.5 | CC(C)(C)OC(=O)NCCCCCCn1ccc2c(C(=O)Nc3ccc(=O)n(CC(=O)O)c3)cccc21 [I-160]
0.5 to 5 | 0.5 to 5 | O=C(O)Cn1cc(NC(=O)c2ccc(-c3ccccc3)cc2F)ccc1=O [I-161]
> 5 | > 5 | CCOC(=O)Cn1cc(NC(=O)c2cc(CCCCCCNC(=O)OC(C)(C)C)cc(-c3cccnc3)c2)ccc1=O [I-162]
0.5 to 5 | 0.5 to 5 | NCCCCCCc1ccncc1-c1cccc(C(=O)Nc2ccc(=O)n(CC(=O)O)c2)c1 [I-163]
0.5 to 5 | 0.05 to 0.5 | CC(C)(C)OC(=O)NCCCCCCc1ccncc1-c1cccc(C(=O)Nc2ccc(=O)n(CC(=O)O)c2)c1 [I-164]
0.05 to 0.5 | < 0.05 | CC(C)(C)OC(=O)NCCCCCCc1cc(C(=O)Nc2ccc(=O)n(CC(=O)O)c2)cc(-c2cccnc2)c1 [I-165]
0.5 to 5 | 0.5 to 5 | NCCCCCCc1cc(C(=O)Nc2ccc(=O)n(CC(=O)O)c2)cc(-c2cccnc2)c1 [I-166]
0.5 to 5 | 0.05 to 0.5 | NCCCCCCc1cncc(-c2cccc(C(=O)Nc3ccc(=O)n(CC(=O)O)c3)c2)c1 [I-167]
> 5 | 0.5 to 5 | O=C(O)Cn1cc(NC(=O)c2cccc(-c3cncs3)c2)ccc1=O [I-168]
0.05 to 0.5 | < 0.05 | CC(C)(C)OC(=O)NCCCCCCc1cncc(-c2cccc(C(=O)Nc3ccc(=O)n(CC(=O)O)c3)c2)c1 [I-169]
> 5 | 0.5 to 5 | Cc1ccc(C(=O)Nc2ccc(=O)n(CC(=O)O)c2)nc1-c1cccnc1 [I-170]
> 5 | > 5 | Cc1cc(C(=O)Nc2ccc(=O)n(CC(=O)O)c2)sc1-c1cccnc1 [I-171]
> 5 | > 5 | O=C(O)Cn1cc(NC(=O)c2cccc(-c3cccs3)c2)ccc1=O [I-172, 2-(2-oxo-5-(3-(thiophen-2-yl)benzamido)pyridin-1 (2H)-yl) acetic acid]
> 5 | 0.5 to 5 | Cc1ccc(C(=O)Nc2ccc(=O)n(CC(=O)O)c2)nc1-c1ccccc1 [I-173]
0.5 to 5 | 0.5 to 5 | CC(C)c1ccc(C(=O)Nc2ccc(=O)n(CC(=O)O)c2)cc1-c1cccnc1 [I-174]

IC50 [1] [µM] | IC50 [2] [µM] | Compound
> 5 | 0.5 to 5 | CC(C)c1ccc(C(=O)Nc2ccc(=O)n(CC(=O)O)c2)cc1-c1ccccc1 [I-175]
> 5 | > 5 | O=C(O)Cn1cc(NC(=O)c2ccc3nc(Cl)ccc3c2)ccc1=O [I-176]
> 5 | 0.5 to 5 | O=C(O)Cn1cc(NC(=O)c2ccc3cc(Cl)ccc3c2)ccc1=O [I-177]
> 5 | > 5 | Cn1cc(-c2cccc(C(=O)Nc3ccc(=O)n(CC(=O)O)c3)c2)ccc1=O [I-178]
> 5 | > 5 | CC(C)c1ccc(S(=O)(=O)NCCC(=O)Nc2ccc(=O)n(CC(=O)O)c2)cc1 [I-180]
> 5 | 0.5 to 5 | CCc1ccc(C(=O)Nc2ccc(=O)n(CC(=O)O)c2)cc1-c1cccnc1 [I-181]
> 5 | 0.5 to 5 | CCc1ccc(C(=O)Nc2ccc(=O)n(CC(=O)O)c2)cc1-c1ccccc1 [I-182]
> 5 | > 5 | O=C(O)Cn1cc(NC(=O)[C@H]2CC[C@H](NC(=O)C3CCCC3)CC2)ccc1=O [I-183]
> 5 | > 5 | O=C(O)CC(C(=O)n1ccc2ccccc21)c1ccc(=O)n(CC(=O)O)c1 (stereo not drawn) [I-184]
> 5 | 0.5 to 5 | O=C(O)Cn1cc(NC(=O)c2ccc(-c3ccccc3)c(Cl)c2)ccc1=O [I-185]
> 5 | > 5 | COc1nc2ccccc2cc1C(=O)Nc1ccc(=O)n(CC(=O)O)c1 [I-186]
> 5 | > 5 | Cc1ccc2nc(C(=O)Nc3ccc(=O)n(CC(=O)O)c3)ccc2c1 [I-187]
> 5 | > 5 | CCCOc1nc2ccccc2cc1C(=O)Nc1ccc(=O)n(CC(=O)O)c1 [I-188]
> 5 | > 5 | Cc1ccc2cc(C(=O)Nc3ccc(=O)n(CC(=O)O)c3)cnc2c1 [I-189]
> 5 | > 5 | O=C(O)Cn1cc(NC(=O)CCNC(=O)c2ccc3ccccc3c2)ccc1=O [I-190]
> 5 | > 5 | Cc1ccc2cc(C(=O)Nc3ccc(=O)n(CC(=O)O)c3)c(C)nc2c1 [I-191]
> 5 | > 5 | CS(=O)(=O)c1ccc(-c2cccc(C(=O)Nc3ccc(=O)n(CC(=O)O)c3)c2)cc1 [I-192]
> 5 | > 5 | CNC(=O)c1ccc(-c2cccc(C(=O)Nc3ccc(=O)n(CC(=O)O)c3)c2)cc1 [I-193]
> 5 | > 5 | CS(=O)(=O)c1cccc(-c2cccc(C(=O)Nc3ccc(=O)n(CC(=O)O)c3)c2)c1 [I-194]
> 5 | > 5 | CNC(=O)c1cccc(-c2cccc(C(=O)Nc3ccc(=O)n(CC(=O)O)c3)c2)c1 [I-195]
> 5 | > 5 | O=C(O)Cn1cc(NC(=O)c2ccc(-c3ccccc3Cl)cc2)ccc1=O [I-197]
> 5 | 0.5 to 5 | O=C(O)Cn1cc(NC(=O)c2ccc(-c3cccnc3)cc2)ccc1=O [I-198]
